In patent publication US7005257B1, “Detection of antibiotic resistance in microorganisms” (priority 1998, dated 2006):
≈ marks a conversion by molar mass, not a printed value. Where two headings read alike, the source gives them in different places.

What was measured:
Helicobacter = conditions: cited from earlier work
23S rRNA = conditions: protein-free 23S rRNA extracts (Noller et al., 1992); cited from earlier work
E. coli = system: E. coli; set-up: key: HS, hypersensitive; R, resistant; S, sensitive; conditions: cited from earlier work
M. intracellulare = system: M. intracellulare; set-up: key: HS, hypersensitive; R, resistant; S, sensitive; conditions: cited from earlier work
H. pylori [1] = system: H. pylori; set-up: key: HS, hypersensitive; R, resistant; S, sensitive; conditions: cited from earlier work
P. acnes = system: P. acnes; set-up: key: HS, hypersensitive; R, resistant; S, sensitive; conditions: cited from earlier work
H. pylori [2] = test: MIC value of conventionally characterized H. pylori isolates (clarithromycin); format: cell-based, Helicobacter pylori; set-up: MIC value: unit not given beside the values; conditions: for MIC: Helicobacter pylori
Text: Evaluating the MIC value determination by in-situ hybridization using conventionally characterized H. pylori isolates.

M. pneumoniae = system: M. pneumoniae; set-up: key: HS, hypersensitive; R, resistant; S, sensitive; conditions: cited from earlier work

O=C([O-])c1ccccc1[O-].[Bi+3].[OH-] [BSS]
Effect on Helicobacter (Helicobacter): bactericidal effect

CO[C@@H]1[C@@H](O[C@@H]2O[C@H](C)[C@@H](O[C@H]3C[C@@](C)(O)[C@@H](OC(=O)CC(C)C)[C@H](C)O3)[C@H](N(C)C)[C@H]2O)[C@@H](CC=O)C[C@@H](C)C(=O)/C=C/[C@@H]2O[C@@H]2C[C@@H](C)OC(=O)C[C@H]1OC(C)=O [carbomycin]
Inhibition of in-vitro peptidyltransferase activity (23S rRNA): able to inhibit

O=C(N[C@H](CO)[C@H](O)c1ccc([N+](=O)[O-])cc1)C(Cl)Cl [chloramphenicol]
Phenotype (E. coli; 23S rRNA mutation A2503C): Cam^R
Phenotype (E. coli; 23S rRNA mutation G2032A): R
Phenotype (E. coli; 23S rRNA mutation G2032C): S
Phenotype (E. coli; 23S rRNA mutation G2032U): S
Phenotype (E. coli; 23S rRNA mutation G2057A): Ery^R, Cam^R

CC[C@H]1OC(=O)[C@H](C)[C@@H](O[C@H]2C[C@@](C)(OC)[C@@H](O)[C@H](C)O2)[C@H](C)[C@@H](O[C@@H]2O[C@H](C)C[C@H](N(C)C)[C@H]2O)[C@](C)(OC)C[C@@H](C)C(=O)[C@H](C)[C@@H](O)[C@]1(C)O [clarithromycin]
Phenotype (M. intracellulare; 23S rRNA mutation A2053C): Cla^R
Phenotype (M. intracellulare; 23S rRNA mutation A2058G): Cla^R
Phenotype (M. intracellulare; 23S rRNA mutation A2058U): Cla^R
Phenotype (H. pylori [1]; 23S rRNA mutation A2053C): Cla^R
Phenotype (H. pylori [1]; 23S rRNA mutation A2053G): Cla^R
Phenotype (H. pylori [1]; 23S rRNA mutation A2059G): Cla^R
Phenotype (P. acnes; 23S rRNA mutation A2058G): Cla^R, Ery^R
Phenotype (P. acnes; 23S rRNA mutation A2059G): Cla^R, Ery^R
Phenotype (P. acnes; 23S rRNA mutation G2057A): Cla^R, Ery^R
MIC value (H. pylori [2]; H. pylori strain FD591): 16/32
MIC (H. pylori [2]; H. pylori strain HH531): 48 µg/mL (≈ 64.2 µM)
MIC (H. pylori [2]; H. pylori strain KJ472): 16 µg/mL (≈ 21.4 µM)
MIC (H. pylori [2]; H. pylori strain MC028): 24 µg/mL (≈ 32.1 µM)
MIC (H. pylori [2]; H. pylori strain MC132): 12 µg/mL (≈ 16 µM)
MIC (H. pylori [2]; H. pylori strain MC141): > 256 µg/mL
MIC (H. pylori [2]; H. pylori strain MPS1726): > 256 µg/mL
MIC (H. pylori [2]; H. pylori strain MPS1765): > 256 µg/mL
MIC (H. pylori [2]; H. pylori strain MPS3137): 96 µg/mL (≈ 128 µM)
MIC (H. pylori [2]; H. pylori strain MPS3286): > 256 µg/mL

CC[C@H]1OC(=O)[C@H](C)[C@@H](O[C@H]2C[C@@](C)(OC)[C@@H](O)[C@H](C)O2)[C@H](C)[C@@H](O[C@@H]2O[C@H](C)C[C@H](N(C)C)[C@H]2O)[C@](C)(O)C[C@@H](C)C(=O)[C@H](C)[C@@H](O)[C@]1(C)O [erythromycin]
Phenotype (E. coli; 23S rRNA mutation A2058G): Ery^R
Phenotype (E. coli; 23S rRNA mutation A2058U): Ery^R
Phenotype (E. coli; 23S rRNA mutation C2611U): Ery^RLin^RSgb^R
Phenotype (E. coli; 23S rRNA mutation G2032A): HS
Phenotype (E. coli; 23S rRNA mutation G2032C): HS
Phenotype (E. coli; 23S rRNA mutation G2032U): HS
Phenotype (E. coli; 23S rRNA mutation G2057A): Ery^R, Cam^R
Phenotype (M. pneumoniae; 23S rRNA mutation A2058G): Ery^R
Phenotype (M. pneumoniae; 23S rRNA mutation A2059G): Ery^R
Phenotype (P. acnes; 23S rRNA mutation A2058G): Cla^R, Ery^R
Phenotype (P. acnes; 23S rRNA mutation A2059G): Cla^R, Ery^R
Phenotype (P. acnes; 23S rRNA mutation G2057A): Cla^R, Ery^R

CCC[C@@H]1C[C@@H](C(=O)N[C@@H]([C@H]2O[C@H](SC)[C@H](O)[C@@H](O)[C@H]2O)[C@@H](C)O)N(C)C1 [lincomycin]
Phenotype (E. coli; 23S rRNA mutation C2611U): Ery^RLin^RSgb^R
